Columns and labels:
Assay type in all cases: cell-based
[1] = molecular target: T1, Human GPR40 (Homo sapiens, UniProt O14842); test: Inositol phosphate turnover (IP1) assay in HEK cells stably expressing human GPR40; set-up: expressed in transfected cells; conditions: HEK cells stably expressing human GPR40, 3H-inositol labeling, 60 min compound incubation
Experimental: (§1) Human and mouse GPR40 stable cell-lines were generated in CHO cells stably expressing NFAT BLA (Beta-lactamase). A human GPR40 stable cell-line was generated in HEK cells stably expressing the aequorin expressing reporter. The expression plasmids were transfected using lipofectamine, LIFE TECHNOLOGIES (Carlsbad, Calif.), following manufacturer's instructions. Stable cell-lines were generated following drug selection.
(§2) The assay is performed in a 96-well format. HEK cells stably expressing human GPR40 are plated to be 60-80% confluent within 72 h. After 72 h, the plates are aspirated and the cells washed with inositol-free DMEM (ICN). The wash media is replaced with 150 μL of 3H-inositol labeling media (inositol-free media containing 0.4% human albumin or 0.4% mouse albumin, 1× pen/strep antibiotics, glutamine, 25 mM HEPES to which is added 3H-myo-inositol NEN #NET114A 1 mCi/mL, 25 Ci/mmol diluted 1:150 in loading media with a final specific radioactivity of 1 μCi/150 μL). Alternatively, the human and mouse albumin can be added after the overnight labeling step before the addition of LiCl.
The assay is typically run the next day after 18 h labeling. On the day of the assay, 5 μL of 300 mM LiCl is added to all wells and incubated at 37 degrees for 20 min. 0.75 μL of 200× compounds are added and incubated with the cells for 60 min at 37 degrees. The media is then aspirated off and the assay terminated with the addition of 60 μL 10 mM formic acid. The cells are lysed for 60 min at room temperature. 15-30 μL of lysate is mixed with 70 μL/1 mg YSi SPA beads AMERSHAM (United Kingdom) in clear bottom Isoplates. The plates are shaken for 2 h at room temperature. Beads are allowed to settle and the plates are counted in the Wallac MICROBETA instrument. The activities of the compounds in the examples have EC50 (effective concentration of compound to afford 50% of the maximum observed […]) values listed in Table I.

[2] = molecular target: T1, Human GPR40; test: FLIPR assay: agonist-induced calcium mobilization in GPR40/CHO NFAT BLA cells; set-up: expressed in transfected cells; host or cells: CHO cells stably expressing NFAT BLA (beta-lactamase)
From the text: as §1
FLIPR (Fluorimetric Imaging Plate Reader, Molecular Devices) assays were performed to measure agonist-induced calcium mobilization of the stable clones. For the FLIPR assay, one day before assay, GPR40/CHO NFAT BLA cells were seeded into black-wall-clear-bottom 384-well plates (Costar) at 1.4×10e4 cells/20 μL medium/well. The cells were incubated with 20 μl/well of the assay buffer (HBSS, 0.1% BSA, 20 mM HEPES, 2.5 mM probenecid, pH 7.4) containing 8 μM fluo-4, AM, 0.08% pluronic acid at room temperature for 100 minutes. Fluorescence output was measured using FLIPR. Compounds were dissolved in DMSO and diluted to desired concentrations with assay buffer. 13.3 μL/well of compound solution was added. The activities of the compounds in the examples have EC50 (effective concentration of compound to afford 50% of the maximum observed fluorescence) values listed in Table I.

[3] = molecular target: T1, Human GPR40; test: Inositol phosphate turnover (IP1) assay in HEK cells stably expressing human GPR40; conditions: HEK cells stably expressing human GPR40, 3H-inositol labeling, 60 min compound incubation
Experimental: as §1, §2
The assay is typically run the next day after 18 h labeling. On the day of the assay, 5 μL of 300 mM LiCl is added to all wells and incubated at 37 degrees for 20 min. […] Beads are allowed to settle and the plates are counted in the Wallac MICROBETA instrument. […]

T1 sequence (O14842 whole entry): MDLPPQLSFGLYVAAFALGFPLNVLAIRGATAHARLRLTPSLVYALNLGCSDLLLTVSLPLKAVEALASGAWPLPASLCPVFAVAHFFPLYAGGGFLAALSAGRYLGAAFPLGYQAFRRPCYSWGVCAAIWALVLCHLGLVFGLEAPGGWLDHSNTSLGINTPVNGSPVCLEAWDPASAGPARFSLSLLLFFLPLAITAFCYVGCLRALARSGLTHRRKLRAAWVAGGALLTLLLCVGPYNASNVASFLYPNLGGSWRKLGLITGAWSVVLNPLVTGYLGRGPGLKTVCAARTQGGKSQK

| Structure (SMILES) | EC50 [1] [nM] | EC50 [2] [nM] | EC50 [3] [nM] |
| --- | --- | --- | --- |
| Cc1nc(N2[C@@H]3CC[C@H]2CC(O)C3)ccc1-c1ccc(F)c(COc2ccc3c(c2)C[C@H]2[C@H](C(=O)O)[C@@H]32)c1 (stereo partly drawn) [Example 39, (1S,1aS,6aR)-4-((2-fluoro-5-(6-((1R,5S)-3-hydroxy-8-azabicyclo[3.2.1]octan-8-yl)-2-methylpyridin-3-yl)benzyl)oxy)-1,1a,6,6a-tetrahydrocyclopropa[a]indene-1-carboxylic acid] | 26 | 47.6 |  |
| Cc1cc(OCCCS(C)(=O)=O)nc(C)c1-c1cccc(COc2ccc3c(c2)C[C@H]2[C@H](C(=O)O)[C@@H]32)c1 [Example 4, (1S,1aS,6aR)-4-[(3-{2,4-dimethyl-6-[3-(methylsulfonyl)propoxy]pyridin-3-yl}benzyl)oxy]-1,1a,6,6a-tetrahydrocyclopropa[a]indene-1-carboxylic acid] | 15 | 89.1 |  |
| Cc1nc(N2CCC(O)CC2)ccc1-c1ccc(F)c(COc2ccc3c(c2)C[C@H]2[C@H](C(=O)O)[C@@H]32)c1 [Example 41, (1S,1aS,6aR)-4-((2-fluoro-5-(6-(4-hydroxypiperidin-1-yl)-2-methylpyridin-3-yl)benzyl)oxy)-1,1a,6,6a-tetrahydrocyclopropa[a]indene-1-carboxylic acid] | 6 | 22.4 |  |
| Cc1nc(N2CCN(S(C)(=O)=O)CC2)ccc1-c1cccc(COc2ccc3c(c2)C[C@H]2[C@H](C(=O)O)[C@@H]32)c1 [Example 48] |  | 76.7 | 38.5 |
| CS(=O)(=O)CCCOc1ncc(-c2ccc(F)c(COc3ccc4c(c3)C[C@H]3[C@H](C(=O)O)[C@@H]43)c2)cc1C(F)(F)F [Example 54, (1S,1aS,6aR)-4-((2-Fluoro-5-(6-(3-(methylsulfonyl)propoxy)-5-(trifluoromethyl)pyridin-3-yl)benzyl)oxy)-1,1a,6,6a-tetrahydrocyclopropa[a]indene-1-carboxylic acid] | 236 | 50.7 |  |
| Cc1nc(N2CCC(c3ccccc3)CC2)nc(C)c1-c1ccc(F)c(COc2ccc3c(c2)C[C@H]2[C@H](C(=O)O)[C@@H]32)c1F [Example 45, (1S,1aS,6aR)-4-((3-(4,6-dimethyl-2-(4-phenylpiperidin-1-yl)pyrimidin-5-yl)-2,6-difluorobenzyl)oxy)-1,1a,6,6a-tetrahydrocyclopropa[a]indene-1-carboxylic acid] | 853 | 29.4 |  |
| Cc1ccc(COc2ccc3c(c2)C[C@H]2[C@H](C(=O)O)[C@@H]32)cc1-c1cnc2c(ccn2CCCS(C)(=O)=O)c1 [Example 23, (1S,1aS,6aR)-4-((4-methyl-3-(1-(3-(methylsulfonyl)propyl)-1H-pyrrolo[2,3-b]pyridin-5-yl)benzyl)oxy)-1,1a,6,6a-tetrahydrocyclopropa[a]indene-1-carboxylic acid] | 84.5 | 74.2 |  |

Next, values leading:

| EC50 [1] [nM] | EC50 [2] [nM] | EC50 [3] [nM] | Structure (SMILES) |
| --- | --- | --- | --- |
| 80.8 | 74.1 |  | Cc1nc(OC2CCC(C(C)(C)O)CC2)ccc1-c1ccc(F)c(COc2ccc3c(c2)C[C@H]2[C@H](C(=O)O)[C@@H]32)c1 (stereo partly drawn) [Example 38, (1S,1aS,6aR)-4-((2-fluoro-5-(6-((4-(2-hydroxypropan-2-yl)cyclohexyl)oxy)-2-methylpyridin-3-yl)benzyl)oxy)-1,1a,6,6a-tetrahydro-cyclopropa[a]indene-1-carboxylic acid] |
| 5.5 | 35.4 |  | O=C(O)[C@H]1[C@@H]2Cc3cc(OCc4cc(-c5cnc(NCC6CCOCC6)cc5C(F)(F)F)ccc4F)ccc3[C@@H]21 [Example 55, (1S,1aS,6aR)-4-((2-fluoro-5-(6-(((tetrahydro-2H-pyran-4-yl)methyl)amino)-4-(trifluoromethyl)pyridin-3-yl)benzyl)oxy)-1,1a,6,6a-tetrahydrocyclopropa[a]indene-1-carboxylic acid] |
| 25.5 | 83.8 |  | Cc1nc(OCC2(O)CCCCC2O)ccc1-c1ccc(F)c(COc2ccc3c(c2)C[C@H]2[C@H](C(=O)O)[C@@H]32)c1 (stereo partly drawn) [Example 26, (1S,1aS,6aR)-4-((5-(6-((1,2-dihydroxycyclohexyl)methoxy)-2-methylpyridin-3-yl)-2-fluorobenzyl)oxy)-1,1a,6,6a-tetrahydrocyclopropa[a]indene-1-carboxylic acid] |
| 14.7 | 16.6 |  | Cc1nc(OCCCC2(O)CC2)ccc1-c1ccc(F)c(COc2ccc3c(c2)C[C@H]2[C@H](C(=O)O)[C@@H]32)c1 [Example 37, (1S,1aS,6aR)-4-((2-fluoro-5-(6-(3-(1-hydroxycyclopropyl)propoxy)-2-methylpyridin-3-yl)benzyl)oxy)-1,1a,6,6a-tetrahydrocyclopropa[a]indene-1-carboxylic acid] |
| 19.5 | 28.9 |  | Cc1nc(OC2CCN(S(C)(=O)=O)CC2)ccc1-c1ccc(F)c(COc2ccc3c(c2)C[C@H]2[C@H](C(=O)O)[C@@H]32)c1 [Example 49, (1S,1aS,6aR)-4-((2-fluoro-5-(2-methyl-6-((1-(methylsulfonyl)piperidin-4-yl)oxy)pyridin-3-yl)benzyl)oxy)-1,1a,6,6a-tetrahydrocyclopropa[a]indene-1-carboxylic acid] |
| 16 | 17.8 |  | Cc1nc(N2CCC(CNS(C)(=O)=O)C2)ccc1-c1ccc(F)c(COc2ccc3c(c2)C[C@H]2[C@H](C(=O)O)[C@@H]32)c1 (stereo partly drawn) [Example 47, (1S,1aS,6aR)-4-((2-fluoro-5-(2-methyl-6-(3-(methylsulfonamidomethyl)pyrrolidin-1-yl)pyridin-3-yl)benzyl)oxy)-1,1a,6,6a-tetrahydrocyclopropa[a]indene-1-carboxylic acid] |
| 5 | 20.6 |  | CS(=O)(=O)CCCOc1cc(C(F)(F)F)c(-c2ccc(F)c(COc3ccc4c(c3)C[C@H]3[C@H](C(=O)O)[C@@H]43)c2)cn1 [Example 32, (1S,1aS,6aR)-4-((2-fluoro-5-(6-(3-(methylsulfonyl)propoxy)-4-(trifluoromethyl)pyridin-3-yl)benzyl)oxy)-1,1a,6,6a-tetrahydrocyclopropa[a]indene-1-carboxylic acid] |
|  | 30.7 | 6.5 | CS(=O)(=O)CCCOc1ncc(-c2ccc(F)c(COc3ccc4c(c3)C[C@H]3[C@H](C(=O)O)[C@@H]43)c2)c(C(F)(F)F)n1 [Example 33] |
| 20.5 | 19.9 |  | Cc1nc(OCCCN2CCCC2=O)ccc1-c1ccc(F)c(COc2ccc3c(c2)C[C@H]2[C@H](C(=O)O)[C@@H]32)c1 [Example 36, (1S,1aS,6aR)-4-((2-fluoro-5-(2-methyl-6-(3-(2-oxopyrrolidin-1-yl)propoxy)pyridin-3-yl)benzyl)oxy)-1,1a,6,6a-tetrahydrocyclo-propa[a]indene-1-carboxylic acid] |
